# According to ChEMBL document CHEMBL1128089, “A carbene-generating biotinylated lactosylceramide analog as novel photoreactive substrate for GM3 synthase” (Bioorg Med Chem Lett, 1995):
# Values joined by “and” are separate entries in the source; they are usually repeats but may differ in a detail not shown here. Identical values can stand only once.
# Tests used:
# [1] = Km from Lineweaver-Burke plot; type: ADME
# Rattus norvegicus [2] = species: Rattus norvegicus; experiment: Evaluation of inhibition of CDH sialylation by the compound at a concentration of 0 mM; type: functional
# Rattus norvegicus [3] = species: Rattus norvegicus; experiment: Evaluation of inhibition of CDH sialylation by the compound at a concentration of 0.9 mM; type: functional
# Rattus norvegicus [4] = species: Rattus norvegicus; experiment: Evaluation of competition between CDH and compound using [3H]NANA as ligand in sialyltransferase assay at a concentration of 0.18 mM
# Rattus norvegicus [5] = species: Rattus norvegicus; experiment: Evaluation of competition between CDH and compound using [3H]NANA as ligand in sialyltransferase assay at a concentration of 0.90 mM
compound,measurement,setting,value
O=C(CCCC[C@@H]1SC[C@@H]2NC(=O)N[C@@H]21)NCCCC[C@H](NC(=O)c1ccc(C2(C(F)(F)F)N=N2)cc1)C(=O)NCCO[C@@H]1O[C@@H](CO)[C@@H](O[C@@H]2O[C@@H](CO)[C@H](O)[C@H](O)[C@@H]2O)[C@H](O)[C@@H]1O,Km,[1],180 µM
same,Inhibition,Rattus norvegicus [2],0%
same,Inhibition,Rattus norvegicus [3],64%
same,Binding,Rattus norvegicus [4],3850 dpm and 9480 dpm
same,Binding,Rattus norvegicus [5],8610 dpm
